Measured values as given in patent US11976137B2, “Compounds for use as apelin receptor antagonists” (Cambridge Enterprise Limited, priority 2018, dated 2024).
“And” between values parts separate entries of the source, which are not always exact repeats. Equal entries are not always repeated. Where two headings read alike, the source gives them in different places. Non-standard residues stand in square brackets, D forms with d. Residues, ends and D or L forms follow the SMILES beside them. *: point of attachment. Phe(3,4,5-F3) = N[C@@H](Cc1cc(F)c(F)c(F)c1)C(=O)O; Myristoyl = CCCCCCCCCCCCCC(=O)*; Nle = CCCC[C@H](N)C(=O)O; Abu = CC[C@H](N)C(=O)O; Aib = CC(C)(N)C(=O)O

Experiments:
Set-up in all cases: host or cells: CHO-K1
human apelin receptor [1] = target: T1, human apelin receptor (Homo sapiens, UniProt P35414); test: Cerep radioligand binding assay on CHO-K1 cells expressing the human apelin receptor
T1 sequence (P35414 1-380): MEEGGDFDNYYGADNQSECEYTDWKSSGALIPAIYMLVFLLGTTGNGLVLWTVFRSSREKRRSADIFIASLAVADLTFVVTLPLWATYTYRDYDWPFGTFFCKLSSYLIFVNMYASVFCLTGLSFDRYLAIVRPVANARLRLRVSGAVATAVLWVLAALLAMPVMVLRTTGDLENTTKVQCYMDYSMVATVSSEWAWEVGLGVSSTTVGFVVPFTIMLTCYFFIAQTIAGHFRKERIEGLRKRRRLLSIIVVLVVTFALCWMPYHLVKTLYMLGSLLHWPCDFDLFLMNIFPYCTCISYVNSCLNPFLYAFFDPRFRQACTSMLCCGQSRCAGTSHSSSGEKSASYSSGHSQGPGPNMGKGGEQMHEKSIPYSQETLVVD
Protocol: Binding assays were performed by Cerep (Celle L'Evescault, France) on Chinese Hamster Ovary (CHO-K1) cells expressing the human apelin receptor. […] The results were expressed as a percent of control specific binding ((measured specific binding/control specific binding)×100) and as a percent inhibition of control specific binding (100−((measured specific binding/control specific binding)×100)) obtained in the presence of the test compounds. […] The inhibition constants (Ki) were calculated using the Cheng Prusoff equation (Ki=IC50/(1+(L/KD)), where L=concentration of radioligand in the assay, and KD=equilibrium dissociation constant of the radioligand for the receptor).

human apelin receptor [2] = target: T1, human apelin receptor; test: DRx cAMP assay (cAMP Hunter eXpress AGTRL1 CHO-K1), forskolin-induced cAMP accumulation; format: cell-based; settings: for Kb: DRx cAMP pA2, antagonism of [Pyr1]apelin-13 inhibition of forskolin-stimulated cAMP
Protocol: Antagonist activity at the apelin receptor was measured in two assays.
(§1) cAMP (cAMP Hunter™ eXpress AGTRL1 CHO-K1 GPCR Assay, DiscoverX Corporation, Ltd. Birmingham, UK) and β-arrestin (PathHunter® eXpress AGTRL1 CHO-K1 β-Arrestin GPCR Assay, DiscoverX Corporation, Ltd. Birmingham, UK) assays were performed according to the manufacturer's instructions. The cAMP assay measures the canonical signalling pathway through the G-protein. The β-arrestin assay measures the alternative signalling pathway and receptor internalisation.
Cells were then incubated with a mixture of Lysis Buffer, cAMP Buffer D and Detection Reagents for 1 hour at room temperature, followed by a 3 hour incubation with cAMP Reagent A at room temperature. Chemiluminescence was read using the LumiLITE™ Microplate Reader (DiscoverX). Concentration-response data for agonists, measured in relative light units (RLU), were analysed using a 4 parameter logistic equation in GraphPad Prism 6 (La Jolla, CA, USA) to determine values of potency expressed as the pD2 value (negative logo of the EC50 (where EC50 is the concentration producing half maximal response)), and maximum response (EMAX). Mean data from replicate experiments were normalised as percentage inhibition of forskolin-stimulated cAMP production.

human apelin receptor [3] = target: T1, human apelin receptor; test: DRx β-arrestin assay (PathHunter eXpress AGTRL1 CHO-K1); format: cell-based; settings: for Kb: DRx β-Arrestin pA2; for bias between cAMP and β-arrestin pathway inhibition: comparison of β-arrestin and cAMP pA2 of Table 3
Protocol: as §1
For recruitment of β-arrestin, CHO-K1 cells artificially expressing the human apelin receptor were seeded in Cell Plating medium into 96-well plates and incubated for 48 hours at 37° C. in 5% CO2. Concentration response curves were constructed to test peptides (1 pmol/L-30 μmol/L) which were diluted in Cell Plating medium and added to the cells for 90 minutes at 37° C. If no response was obtained then test peptides were investigated as antagonists. […] Detection reagents were then added for a 2-hour incubation at room temperature. […] If no agonist response was obtained, test compounds were investigated for antagonist activity by repeating [Pyr]apelin-13 concentration response curves in the absence and presence of a single concentration (1-30 μmol/L of test peptide). Data were analysed as described for the cAMP assay using the Gaddum/Schild EC50 function in GraphPad Prism 6 to determine values of pA2.

[4] = [Glp65,Nle75,Tyr77][125I]apelin-13, read-out: Ki (binding affinity at the apelin receptor, Cerep)

| Compound | Ki (human apelin receptor [1]; [4]) | Kb (human apelin receptor [2]) | Ki (human apelin receptor [1]; Ki (binding affinity at the apelin receptor, Cerep), [Glp65,Nle75,Tyr77][125I]apelin-13) | Kb (human apelin receptor [3]) | DRx β-Arrestin pA2 (human apelin receptor [3]; cho-k1 cells, 90 min) | bias between cAMP and β-arrestin pathway inhibition (human apelin receptor [3]) | DRx β-Arrestin pA2 (human apelin receptor [3]) | DRx cAMP pA2 (human apelin receptor [2]; antagonism of [Pyr1]apelin-13 inhibition of forskolin-stimulated cAMP) |
| --- | --- | --- | --- | --- | --- | --- | --- | --- |
| CCCC[C@H](NC(=O)[C@H](CCCNC(=N)N)NC(=O)C(C)(C)NC(=O)[C@H](CCCNC(=N)N)NC(=O)[C@H](CC)NC(=O)[C@H](Cc1c[nH]cn1)NC(=O)[C@H](CCCCN)NC(=O)[C@H](CS)NC(=O)[C@H](CCCC)NC(=O)[C@H](CCCNC(=N)N)NC(=O)[C@@H]1CCCN1C(=O)[C@H](CCCNC(=N)N)NC(=O)[C@H](C)NC(C)=O)C(=O)N[C@@H](Cc1cc(F)c(F)c(F)c1)C(=O)O [MM313, Ac-ARPR-Nle-CKH-Abu-R-Aib-R-Nle-(3,4,5-trifluorophenylalanine)] (Ac-ARPR[Nle]CKH[Abu]R[Aib]R[Nle][Phe(3,4,5-F3)]-OH) | 53 nM and 47 nM | 219 nM and 120 nM | – | – | – | – | – | – |
| CC(C)C[C@H](NC(=O)[C@H](CCCNC(=N)N)NC(=O)[C@@H]1CCCN1C(=O)[C@H](CCCNC(=N)N)NC(=O)[C@H](CS)NC(=O)[C@H](Cc1c[nH]cn1)NC(=O)[C@H](CCCCN)NC(=O)[C@H](CS)NC(=O)[C@H](CC(C)C)NC(=O)[C@H](CCCNC(=N)N)NC(=O)[C@@H]1CCCN1C(=O)[C@H](CCCNC(=N)N)NC(=O)[C@@H](N)CS)C(=O)N[C@@H](CS)C(=O)O [MM108] (H-CRPRLCKHCRPRLC-OH) | – | 107 nM and 191 nM | 140 nM | 38.9 nM | pA2 = 7.41 | – | – | – |
| CCCC[C@H](NC(=O)[C@H](CCCNC(=N)N)NC(=O)C(C)(C)NC(=O)[C@H](CCCNC(=N)N)NC(=O)[C@H](CC)NC(=O)[C@H](Cc1c[nH]cn1)NC(=O)[C@H](CCCCN)NC(=O)[C@H](CS)NC(=O)[C@H](CCCC)NC(=O)[C@H](CCCNC(=N)N)NC(=O)[C@@H]1CCCN1C(=O)[C@H](CCCNC(=N)N)NC(=O)[C@H](C)N)C(=O)N[C@@H](Cc1cc(F)c(F)c(F)c1)C(=O)O [MM312, ARPR-Nle-CKH-Abu-R-Aib-R-Nle-(3,4,5-trifluorophenylalanine)] (H-ARPR[Nle]CKH[Abu]R[Aib]R[Nle][Phe(3,4,5-F3)]-OH) | 190 nM and 160 nM | 251 nM and 145 nM | – | – | – | – | – | – |
| CCCC[C@H](NC(=O)[C@H](CCCNC(=N)N)NC(=O)C(C)(C)NC(=O)[C@H](CCCNC(=N)N)NC(=O)[C@H](CS)NC(=O)[C@H](CCCCN)NC(=O)[C@H](Cc1c[nH]cn1)NC(=O)[C@H](CS)NC(=O)[C@H](CCCC)NC(=O)[C@H](CCCNC(=N)N)NC(=O)[C@@H]1CCCN1C(=O)[C@H](CCCNC(=N)N)NC(=O)[C@@H](N)CS)C(=O)N[C@@H](Cc1cc(F)c(F)c(F)c1)C(=O)O [MM302, CRPR-Nle-CHKCR-Aib-R-Nle-(3,4,5-trifluorophenylalanine)] (H-CRPR[Nle]CHKCR[Aib]R[Nle][Phe(3,4,5-F3)]-OH; N-terminus and C-terminus assumed) | 17 nM | 20 nM and 55 nM | – | 2.69 nM and 2.29 nM | – | almost a log unit of bias towards inhibition of the β-arrestin pathway | – | – |
| CCCC[C@H](NC(=O)[C@H](CCCNC(=N)N)NC(=O)C(C)(C)NC(=O)[C@H](CCCNC(=N)N)NC(=O)[C@H](CC)NC(=O)[C@H](Cc1c[nH]cn1)NC(=O)[C@H](CCCCN)NC(=O)[C@H](CS)NC(=O)[C@H](CCCC)NC(=O)[C@H](CCCNC(=N)N)NC(=O)[C@@H]1CCCN1C(=O)[C@H](CCCNC(=N)N)NC(=O)[C@@H](N)CS)C(=O)N[C@@H](Cc1cc(F)c(F)c(F)c1)C(=O)O [MM299, CRPR-Nle-CKH-Abu-R-Aib-R-Nle-(3,4,5-trifluorophenylalanine)] (H-CRPR[Nle]CKH[Abu]R[Aib]R[Nle][Phe(3,4,5-F3)]-OH) | 6.1 nM | 47.9 nM and 112 nM | – | 7.94 nM and 2.95 nM | – | – | – | – |
| CCCCCCCCCCCCCC(=O)N[C@@H](CS)C(=O)N[C@@H](CCCNC(=N)N)C(=O)N1CCC[C@H]1C(=O)N[C@@H](CCCNC(=N)N)C(=O)N[C@@H](CCCC)C(=O)N[C@@H](CS)C(=O)N[C@@H](CCCCN)C(=O)N[C@@H](Cc1c[nH]cn1)C(=O)N[C@@H](CS)C(=O)N[C@@H](CCCNC(=N)N)C(=O)NC(C)(C)C(=O)N[C@@H](CCCNC(=N)N)C(=O)N[C@@H](CCCC)C(=O)N[C@@H](Cc1cc(F)c(F)c(F)c1)C(=O)O [MM300, Myristoyl-CRPR-Nle-CKHCR-Aib-R-Nle-(3,4,5-trifluorophenylalanine)] (Myristoyl-CRPR[Nle]CKHCR[Aib]R[Nle][Phe(3,4,5-F3)]-OH; C-terminus assumed) | 13 nM | – | – | 1.1 nM and 3.16 nM | – | bias towards either C-AMP | 8.96 | 9.66 |
| CCCC[C@H](NC(=O)[C@H](CCCNC(=N)N)NC(=O)C(C)(C)NC(=O)[C@H](CCCNC(=N)N)NC(=O)[C@H](CC)NC(=O)[C@H](Cc1c[nH]cn1)NC(=O)[C@H](CCCCN)NC(=O)[C@H](CC)NC(=O)[C@H](CCCC)NC(=O)[C@H](CCCNC(=N)N)NC(=O)[C@@H]1CCCN1C(=O)[C@H](CCCNC(=N)N)NC(=O)[C@H](C)N)C(=O)N[C@@H](Cc1cc(F)c(F)c(F)c1)C(=O)O [MM314, ARPR-Nle-Abu-KH-Abu-R-Aib-R-Nle-(3,4,5-trifluorophenylalanine)] (H-ARPR[Nle][Abu]KH[Abu]R[Aib]R[Nle][Phe(3,4,5-F3)]-OH) | 10 nM and 8.9 nM | 372 nM and 195 nM | – | – | – | – | – | – |
| CC(C)C[C@H](NC(=O)[C@H](CCCNC(=N)N)NC(=O)[C@@H]1CCCN1C(=O)[C@H](CCCNC(=N)N)NC(=O)[C@H](CS)NC(=O)[C@H](CCCCN)NC(=O)[C@H](Cc1c[nH]cn1)NC(=O)[C@H](CS)NC(=O)[C@H](CC(C)C)NC(=O)[C@H](CCCNC(=N)N)NC(=O)[C@@H]1CCCN1C(=O)[C@H](CCCNC(=N)N)NC(=O)[C@@H](N)CS)C(=O)N[C@@H](CS)C(=O)O [MM107] (H-CRPRLCHKCRPRLC-OH; N-terminus and C-terminus assumed) | – | 4680 nM and 575 nM | – | 57.5 nM | pA2 = 7.24 | – | – | – |
| CCCCCCCCCCCCCC(=O)N[C@@H](C)C(=O)N[C@@H](CCCNC(=N)N)C(=O)N1CCC[C@H]1C(=O)N[C@@H](CCCNC(=N)N)C(=O)N[C@@H](CCCC)C(=O)N[C@@H](CC)C(=O)N[C@@H](Cc1c[nH]cn1)C(=O)N[C@@H](CCCCN)C(=O)N[C@@H](CC)C(=O)N[C@@H](CCCNC(=N)N)C(=O)NC(C)(C)C(=O)N[C@@H](CCCNC(=N)N)C(=O)N[C@@H](CCCC)C(=O)N[C@@H](Cc1cc(F)c(F)c(F)c1)C(=O)O [MM316, Myristoyl-ARPR-Nle-Abu-HK-Abu-R-Aib-R-Nle-(3,4,5-trifluorophenylalanine)] (Myristoyl-ARPR[Nle][Abu]HK[Abu]R[Aib]R[Nle][Phe(3,4,5-F3)]-OH) | 2.8 nM and 3 nM | 13.2 nM and 38.9 nM | – | – | – | – | – | – |
| CCCCCCCCCCCCCC(=O)N[C@@H](C)C(=O)N[C@@H](CCCNC(=N)N)C(=O)N1CCC[C@H]1C(=O)N[C@@H](CCCNC(=N)N)C(=O)N[C@@H](CCCC)C(=O)N[C@@H](CC)C(=O)N[C@@H](CCCCN)C(=O)N[C@@H](Cc1c[nH]cn1)C(=O)N[C@@H](CC)C(=O)N[C@@H](CCCNC(=N)N)C(=O)NC(C)(C)C(=O)N[C@@H](CCCNC(=N)N)C(=O)N[C@@H](CCCC)C(=O)N[C@@H](Cc1cc(F)c(F)c(F)c1)C(=O)O [MM315, Myristoyl-ARPR-Nle-Abu-KH-Abu-R-Aib-R-Nle-(3,4,5-trifluorophenylalanine)] (Myristoyl-ARPR[Nle][Abu]KH[Abu]R[Aib]R[Nle][Phe(3,4,5-F3)]-OH) | 2.7 nM and 3 nM | 7.76 nM and 3.02 nM | – | – | – | – | – | – |
